From patent US11919939B2, “Beta-2-glycoprotein 1 derived peptide and use thereof for treating antiphospholipid syndrome” (Université de Genéve, priority 2017, dated 2024)
Entries after “also recorded” stand apart in the source; their conditions may differ.

B1: domain III-IV: recombinant fusion protein of β2GP1 domains III-IV (protein)
chain: PIICPPPSIPTFATLRVYKPSAGNNSLYRDTAVFECLPQHAMFGNDTITCTTHGNWTKLPECREVKCPFPSRPDNGFVNYPAKPTLYYKDKATFGCHDGYSLDGPEEIECTKLGNWSAMPSCKA
modifications: left off: small tags and cut ends
B2: domain I-II: recombinant fusion protein of β2GP1 sushi domain I and II, SEQ ID NO:37 (protein, listed as Homo sapiens)
chain: MISPVLILFSSFLCHVAIAGRTCPKPDDLPFSTVVPLKTFYEPGEEITYSCKPGYVSRGGMRKFICPLTGLWPINTLKCTPRVCPFAGILENGAVRYTTFEYPNTISFSCNTGFYLNGADSAKCTEEGKWSPELPVCA
B3: reduced β2GP1: reduced β2GP1 exposing the cryptic epitope (protein)
chain: GRTCPKPDDLPFSTVVPLKTFYEPGEEITYSCKPGYVSRGGMRKFICPLTGLWPINTLKCTPRVCPFAGILENGAVRYTTFEYPNTISFSCNTGFYLNGADSAKCTEEGKWSPELPVCAPIICPPPSIPTFATLRVYKPSAGNNSLYRDTAVFECLPQHAMFGNDTITCTTHGNWTKLPECREVKCPFPSRPDNGFVNYPAKPTLYYKDKATFGCHDGYSLDGPEEIECTKLGNWSAMPSCKASCKVPVKKATVVYQGERVKIQEKFKNGMLHGDKVSFFCKNKEKKCSYTEDAQCIDGTIEVPKCFKEHSSLAFWKTDASDVKPC
B4: β-2-Glycoprotein 1 (protein)
chain: B3 chain
notes: native β2GP1 purified from Human Plasma (Prospecbio)
B5: domain V: recombinant fusion protein of β2GP1 domain V (protein)
chain: SCKVPVKKATVVYQGERVKIQEKFKNGMLHGDKVSFFCKNKEKKCSYTEDAQCIDGTIEVPKCFKEHSSLAFWKTDASDVKPC
modifications: left off: small tags and cut ends

Legend:
[1] = test system: aPLA (patient-derived anti-β2GP1 antibodies); experiment: ELISA epitope mapping assay (aPLA binding to coated wells); parameters: species or system human; conditions: wells coated with 10 μg/ml, aPLA from APS patients
Description: IgG fractions were isolated from patients plasma with Protein-G CL-4B Sepharose (GE Healthcare) as previously described.^16 To assay for endotoxin and lipopeptide contamination of the IgG fractions, we depleted IgG from the aPLA and IgG-ctl (control) fractions by one step of affinity adsorption to Protein G-Sepharose and tested the remaining supernatant for its capacity for monocyte activation, as previously described^17. […] Each experiment was performed with at least 2 different preparations of IgG.
MaxiSorp™ 96 well plates (Nunc) were coated with 10 μg/ml recombinant domains or peptides of β2GP1 prior to incubation with aPLA or control IgG. Secondary anti-human antibodies conjugated to IR800CW (Rockland) were used. Protein- or peptide-bound antibodies were detected and quantified by the Odyssey system (Li-Cor).

[2] = test system: human monocytes activated with aPLA; experiment: TNF production in human monocytes activated with aPLA; type: cell-based; conditions: domains or peptides at 10 μg/ml
Description: Monocytes were isolated from blood buffy coats of healthy volunteers as previously described.^14, 15 Monocyte purity routinely consisted of >90% CD14^+ cells, <1% CD3^+ cells, and <1% CD19^+ cells as assessed by flow cytometry. Cells were cultured in RPMI containing 10% Fetal Bovine Serum (FBS; Gibco BRL-Life Technologies). Each experiment was performed with at least three different preparations of monocytes.
The cells were treated with recombinant domains or peptides of β2GP1 at 10 μg/ml prior to incubation with aPLA or control IgG. Supernatants were collected for TNF quantification by ELISA (R&D System).

[3] = test system: CD4+ T cells from APS patients; experiment: T cell proliferation assay (CFSE dilution) on PBMC of APS patients; type: cell-based, human; parameters: dose or concentration left out as unconfirmed; conditions: antigens for 10 days, flow cytometry
Description: Peripheral blood mononuclear cells (PBMC) were isolated by density gradient centrifugation over Lymphoprep™ (Axis-Shield PoC) according to the manufacturer's instructions. T cell proliferation was evaluated by 5,6-carboxylfluorescein diacetate succinimidyl ester (CFSE) dilution assays (eBioscience). PBMC were stained with 0.1 μM CFSE (eBioscience), according to the manufacturer's instructions. Cells were cultured in the presence of antigens ([…]) for 10 days. T cell proliferation was assessed by flow cytometry evaluation of CFSE dilution. Proliferation was expressed as the cell division index (defined as the number of CFSE^low T cells cultured with antigen/number of CFSE^low T cells without antigen). In all cases, the culture medium consisted of X-VIVO 15 (Lonza, Walkersville, MD) supplemented with penicillin (100 U/ml) and streptomycin (0.1 mg/ml).
Single-cell suspensions stained with CFSE (eBioscience) were incubated with anti-CD32 (Biolegend) to prevent nonspecific antibody binding, then stained with antibodies against AF488-CD3, AF647-CD4, (BD Bioscience) major histocompatibility complex (MHC) class II tetramer (Benaroya Research Institute). Staining was assessed with ACCURI C6 flow cytometer (BD Biosciences).

| Molecule | aPLA binding to peptide- or domain-coated well [1] | Inhibition of TNF production induced by aPLA [2] | further results |
| --- | --- | --- | --- |
| C14A: alanine scanning mutant of p1 (MISPVLILFSSFLAHVAIAG; listed as Homo sapiens) | significantly decreased the binding of aPLA | – | – |
| C66A: alanine scanning mutant of p6 (CKPGYVSRGGMRKFIAPLTG; listed as Homo sapiens) | involved in the binding of aPLA | – | – |
| F9A: alanine scanning mutant of p1 (MISPVLILASSFLCHVAIAG; listed as Homo sapiens) | significantly decreased the binding of aPLA | – | – |
| F12A: alanine scanning mutant of p1 (MISPVLILFSSALCHVAIAG; listed as Homo sapiens) | significantly decreased the binding of aPLA | – | – |
| F64A: alanine scanning mutant of p6 (CKPGYVSRGGMRKAICPLTG; listed as Homo sapiens) | involved in the binding of aPLA | – | – |
| G59A: alanine scanning mutant of p6 (CKPGYVSRAGMRKFICPLTG; listed as Homo sapiens) | involved in the binding of aPLA | – | – |
| G60A: alanine scanning mutant of p6 (CKPGYVSRGAMRKFICPLTG; listed as Homo sapiens) | involved in the binding of aPLA | – | – |
| I7A: alanine scanning mutant of p1 (MISPVLALFSSFLCHVAIAG; listed as Homo sapiens) | significantly decreased the binding of aPLA | – | – |
| L8A: alanine scanning mutant of p1 (MISPVLIAFSSFLCHVAIAG; listed as Homo sapiens) | significantly decreased the binding of aPLA | – | – |
| M61A: alanine scanning mutant of p6 (CKPGYVSRGGARKFICPLTG; listed as Homo sapiens) | involved in the binding of aPLA | – | – |
| MISPVLILFSSFLCHVAIAG [p1] | able to bind p1 (SEQ ID NO:32) as potently as p6; also recorded: interact with aPLA | diminished the production of TNF induced by aPLA | CD4+ T cell proliferative response (CD4+CFSElow) [3]: significantly increased; also recorded: induced the proliferation of CD4^+ T cells; CD4+ T cell proliferative response (CD4+CFSElow) ([3]; listed as peptide 1): carries antigenic determinant for CD4^+ T cell proliferation |
| R58A: alanine scanning mutant of p6 (CKPGYVSAGGMRKFICPLTG; listed as Homo sapiens) | involved in the binding of aPLA | – | – |
| R62A: alanine scanning mutant of p6 (CKPGYVSRGGMAKFICPLTG; listed as Homo sapiens) | involved in the binding of aPLA | – | – |
| S11A: alanine scanning mutant of p1 (MISPVLILFSAFLCHVAIAG; listed as Homo sapiens) | significantly decreased the binding of aPLA | – | – |
| p3: 20-mer overlapping peptide of β2GP1 domain I-II, SEQ ID NO:39 (RTCPKPDDLPFSTVVPLKTF; listed as Homo sapiens) | bound to p3 with a similar efficiency compared to p1 | – | – |
| p6: 20-mer peptide of β2GP1 domain I-II containing epitope R39-R43, SEQ ID NO:33 (CKPGYVSRGGMRKFICPLTG; listed as Homo sapiens) | interacted similarly with both peptides; also recorded: interact with aPLA | diminished the production of TNF induced by aPLA | – |
| p10: 20-mer overlapping peptide of β2GP1 domain I-II, SEQ ID NO:44 (ENGAVRYTTFEYPNTISFSC; listed as Homo sapiens) | – | had no effect | – |
| p11: 20-mer overlapping peptide of β2GP1 domain I-II, SEQ ID NO:45 (EYPNTISFSCNTGFYLNGAD; listed as Homo sapiens) | – | had no effect | – |
| B1 | efficiently interacted with aPLA | significantly decreased the production of TNF induced by aPLA | aPLA binding to peptide- or domain-coated well ([1]; listed as domain III): binding of aPLA |
| B2 | binding of aPLA | significantly decreased the production of TNF induced by aPLA | CD4+ T cell proliferative response (CD4+CFSElow) [3]: induce proliferation of T cells; CD4+ T cell proliferative response (CD4+CFSElow) ([3]; listed as β2GP1-domain I-II): proliferative responses were detected |
| B3 | binding of aPLA | no effect on aPLA activity | CD4+ T cell proliferative response (CD4+CFSElow) [3]: induce proliferation of T cells; also recorded: proliferative responses were detected |
| B4 | binding of aPLA | no effect on aPLA activity | CD4+ T cell proliferative response (CD4+CFSElow) [3]: unable to significantly stimulate T cell proliferation |
| B5 | – | significantly decreased the production of TNF induced by aPLA | – |
